In patent publication US9486456B2, “Treatment of esophageal motility disorder using sepiapterin, tetrahydrobiopterin and derivatives thereof” (The Board of Regents of the University of Texas System, priority 2006, dated 2016):
Read-outs that look alike come from different tables or passages of the source.

Columns and labels:
gastric tissues = experiment: Nitrergic relaxation of gastric tissues after in vitro incubation (organ bath); parameters: species or system rat
nNOS = nNOS dimerization in gastric LM-MP incubated in vitro; details: DAHP 10 mM, 48 hours, healthy female rat gastric LM-MP
Description: (§1) Gastric LM-MPs were incubated for 48 hrs in the presence or the absence of DAHP (10 mM) and nNOS dimerization (FIG. 9A-9B) in tissues and NO release (FIG. 9C) in the media were assessed. (n=3).
(§2) The present invention examined whether treatment with DAHP in vitro uncoupled gastric nNOS dimerization and NO release in healthy female rats. Gastric longitudinal muscle-myenteric plexus (LM-MP) were incubated for 48 hours in the presence or absence of DHAP (10 mM). It was observed that inhibition of BH4 biosynthesis with DAHP decreased both nNOS dimerization (FIGS. 9A-9B) and NO release (FIG. 9C). These additional data further support the hypothesis that impaired biosynthesis of gastric BH4 accounts for the decrease in nNOS activity and nitrergic relaxation in female diabetic gastroparesis.

gastric LM-MPs = experiment: NO release from gastric LM-MP incubated with DAHP; details: DAHP 10 mM, 48 hours, healthy female rat gastric LM-MP
Description: as §1
Gastric LM-MPs were incubated for 24 hours in DMEM supplemented with 2% neurobasal medium (NB27) and 1% antibiotics. The concentration of NO (micromoles/mg tissue) was measured using readily available NO kit (Cayman corporation). […] The present invention contemplates examining whether supplementation of BH4 and female sex hormones restores reduced NO release in diabetic female gastric LM-MP tissues.
as §2

female rats = experiment: Solid gastric emptying studies; format: in vivo, rat; details: for Effect on gastric emptying for solids: OVX female rats, 21 day release pellets E2 2 mg or P4 20 mg per kg
Description: In addition, using the similar gastric emptying protocol, accelerated gastric emptying was observed instead of delayed gastric emptying in spontaneous diabetic female but not in male diabetic animals (101).
According to the protocol, animals were fasted over night (provide water). On the next day, known amount of food was fed to the animals for 3 h. At the end of 3 h collected the remaining food from the cage and calculated the amount of food intake. Then fast the animals for 4 hrs without food and water. At the end of fast, animals were euthanized, collected the gastric tissue and measured the weight of the whole stomach. Then removed the food contents by opening the stomach and measured the empty stomach weight. The rate of gastric emptying was calculated according to the following equation: gastric emptying (% in 4 h)=(1−gastric content food intake^−1)×100.

nNOSalpha protein = nNOSalpha protein expression, Western blot; format: in vivo, rat; details: for nNOSalpha protein level: diabetic female rat gastric antrum, sepiapterin 10 days or BH4 2 weeks, 20 mg kg^−1 per day
Description: nNOSa protein was quantified in gastric antrum homogenates from all groups using standard western blot analysis, as described in our previous study (94). Proteins were measured by Bio-Rad protein assay (Bio-Rad, Hercules, Calif.) and 30 μg protein was separated by 6% SDS polyacrylamide gel electrophoresis (SDS-PAGE). The membrane was immunoblotted with polyclonal nNOSa primary antibody (Zymed Laboratories Inc., CA) and anti-rabbit IgG conjugated with horseradish peroxidase (Sigma Chemical, St. Louis, Mo.) as secondary antibody. Binding of antibodies to the blots was detected with enhanced chemiluminescence system (ECL, Amersham Pharmacia Biotech, Piscataway, N.J.) following manufacturer's instructions. Stripped blots were re-probed with g-tubulin specific polyclonal antibodies (Sigma Chemical, St. Louis, Mo.) to enable normalization of signals between samples. Band intensities were analyzed using Bio-Rad Gel Doc (Bio-Rad, Hercules, Calif.).

rats = experiment: Intragastric (antrum) pressure by ambulatory telemetry; format: in vivo, rat; details: L-NAME 200 mg/day/kg s.c. osmotic mini-pump, 4 days
Description: The intragastric antrum pressure (IGAP) was measured in normal and diabetic male (FIG. 3A) and female (FIG. 3B) rats. The transducer pressure catheter was introduced into the gastric antrum cavity 5 mm proximal to the pylorus to record IGAP (mmHg×sec). After recording the baseline IGAP, N^G-nitro-L-arginine methyl ester (L-NAME, 200 mg/day/kg body weight (BW)/rat) was administered subcutaneously in the same rats by osmotic mini-pumps (Alza, Palo Alto, Calif., model 2ML1 with a pumping rate of 10 μl/hour) for 4 days. All subsequent studies were performed 1 week after surgery in overnight fasted rats that were awake and in a free-moving state. Pressure recordings were performed at least 2-3 hours between 9-12 am. Bilateral ovariectomy was performed as reported previously. Dietary BH4 (25 mg/day/kg body weight (BE)/rat). *p<0.05. ANOVA.
Intragastric pressure (IGP) was measured using ambulatory telemetric device. […]
Dietary BH4 (25 mg/kg b.w/rat/day) was supplemented for female rats for 12 weeks beginning from day 2 after diabetic induction. Intragastric pressure (IGP) was measured in female control, diabetic and diabetic+BH4 treated rats. […] In another experiment, diabetic females were treated for 3 weeks with BH4 and nNOS alpha protein expression was measured in treated and untreated gastric tissues.

[1] = system: gastric antrum muscle strip; experiment: In vitro NO release from gastric antrum strips (total nitrite); parameters: species or system rat; details: 48 h incubation
Description: Animals from control groups were killed by CO2 asphyxiation, the abdominal cavity opened, and the stomach dissected and transferred in chilled oxygenated Krebs bicarbonate solution of the following composition (in mmol): 118.0 NaCl, 4.7 KCl, 25.0 NaHCO3, 1.5 CaCl2, 1.2 MgSO4, 1.2 KH2PO4, and 11.5 glucose (pH 7.4). Antrum tissue was harvested and cut into mucosa-free strips and were cultured for 48 h (37° C., 5% CO2) in […] of phenol red-free DMEM supplemented with NB27 (2%) and antibiotics (1%) in the presence of normal glucose (control), control+MTX (100 μM), control+MTX+SEP (100 μM, 100 μM). On completion of incubation, DMEM ([…]) was collected and stored at −80° C. for analysis of NO released in medium during incubation period. NO released in the medium was analyzed as total nitrite (metabolic byproduct of NO) following the protocol supplied with a commercially available kit (EMD Chemicals, Gibbstown, N.J.).

gastric muscle strips = experiment: EFS-induced nitrergic (NANC) relaxation of gastric muscle strips after in vivo treatment (organ bath); parameters: species or system rat
Description: Electric field stimulation (EFS)-induced NANC relaxation was studied in circular gastric antrum muscle strips. Muscle strips were tied with silk thread at both ends and were mounted in 10-ml water-jacketed organ baths containing Krebs buffer (11 mM glucose) at 37° C. and continuously bubbled with 95% O2-5% CO2 (Radnoti Glass Technology, Monrovia, Calif.). Tension for each muscle strip was monitored with an isometric force transducer and analyzed by a digital recording system (Biopac Systems, Santa Barbara, Calif.). A passive tension equal to 2 g was applied on each strip in the 1 h equilibration period through an incremental increase (0.5 g, four times, at 15 min interval). Gastric antrum muscle strips were exposed to atropine, phentolamine and propranolol (10 μmol each) in bath solution for 1 h to block cholinergic and adrenergic responses. 5-hydroxytryptamine (5-HT; 100 μM) pre-contracted strips were exposed to EFS (90 V, 2 Hz, 1-ms pulse for duration of 1 min) to elicit NANC relaxation.
To investigate the in vivo effect of methotrexate (MTX) on EFS induced nitrergic relaxation; a group of animals were supplemented with MTX (inhibitor of dihydro folate reductase, DHFR) 3.75 mg kg^−1 body wt. per twice a day for 4 days. Gastric strips from control animals and MTX treated animals were incubated in organ bath and nitrergic relaxation was measured by EFS. At the end of each experiment, the muscle strip was blotted dry with filter paper and weighed. Comparisons between groups were performed by measuring the area under the curve (AUC mg^−1 tissue) of the EFS-induced relaxation (AUCR) for 1 min and the baseline for 1 min (AUCB) according to the formula (AUCR−AUCB) weight of tissue (mg)^−1=AUC mg of tissue^−1.

nNOSalpha = nNOSalpha dimerization, LT-SDS-PAGE, after in vivo treatment; parameters: species or system rat; details: for nNOSalpha dimmer/monomer level: diabetic female rat gastric antrum, sepiapterin 10 days or BH4 2 weeks, 20 mg kg^−1 per day
Description: Levels of nNOSa monomer and dimer were quantified by western blotting via Low temperature (LT)-PAGE in gastric antrum homogenates as described previously (94). LT-SDS-PAGE was performed on ice. The low-temperature process was used to identify nNOS dimers and monomers in the native state as low temperature is known to prevent monomerization of nNOS dimmers. For the low-temperature processing, 30 μg of protein in standard Laemmli buffer at 4° C. was used for SDS-PAGE. The mixture was incubated at 0° C. for 30 min before LT-SDS-PAGE using a 6% separating gel. All gels and buffers were pre-equilibrated to 4° C. prior to electrophoresis and the buffer tank placed in an ice-bath during electrophoresis to maintain the gel temperature below 15° C. A polyclonal antibody specific to nNOSa (Zymed Laboratories) and anti-rabbit IgG conjugated with horseradish peroxidase (Sigma Chemical, St. Louis, Mo.) were used as the primary and secondary antibodies, respectively.

[2] = Fasting blood glucose in control and STZ-diabetic female rats; format: in vivo, rat
Description: (§3) Diabetes was induced in overnight fasted animals by a single intraperitoneal injection of streptozotocin (STZ, 55 mg kg^−1) (Sigma Chemical, St. Louis, Mo.) prepared in 9 mmol citrate buffer, pH 4.0. Control animals were injected with the vehicle (9 mmol citrate buffer, pH 4.0) (94). Blood glucose levels were examined in overnight fasted animals, 48 h post STZ injection. […] Blood glucose levels in vehicle-treated overnight fasting rats ranged between 80-95 mg dl^−1. Both control and diabetic female rats were selected during the diestrus phase of the estrous cycle using vaginal smear testing method [by measuring vaginal cytology (90-100% of leucocytes) under microscope] for further experiments. As reported earlier, 60-70% of diabetic rats show a persistent diestrous stage of the estrous cycle (data not shown) (95-96).
(§4) At the end of 7th week of diabetes induction, animals were divided into four groups, i.e. control female rats (C), diabetic female rats (DB), BH4 supplemented diabetic female rats (DB+BH4) and SEP supplemented diabetic female rats (DB+SEP). DB+BH4 were provided with BH4 pellets (20 mg kg^−1 body wt day^−1) for next 2 weeks. […] Tissue samples were snap frozen in liquid nitrogen and stored at −80° C. until analyzed. BH4 or SEP-pellets used in this study were prepared by compressing (Schircks Laboratories, Switzerland) with rodent chow and stored at −20° C. until used. […]

[3] = Body weight in control and STZ-diabetic female rats; format: in vivo, rat; details: STZ-diabetic female rats + SEP 20 mg kg^−1 day^−1, 10 days
Description: as §3, §4

[4] = healthy female rats, MTX 3.75 mg kg^−1 i.p. twice a day, 4 days
[5] = diabetic female rats + dietary sepiapterin 20 mg kg^−1, 10 days

## Nc1cc(O)nc(N)n1 [DAHP, 2,4-diamino-6-hydroxypyrimidine]
Gastric tissues; DAHP 10 mM, 3 hours incubation, female control gastric tissues, n=2
  Effect on nitrergic relaxation: inhibited
nNOS
  Effect on nNOS dimerization: decreased
Gastric LM-MPs
  Effect on NO release: decreased

## C[C@]12CC[C@@H]3c4ccc(O)cc4CC[C@H]3[C@@H]1CC[C@@H]2O [E2, estradiol-17beta]
Female rats
  Effect on gastric emptying for solids: significantly delayed
Female rats; diabetic female rats, E2 2 mg/kg, 3 weeks
  Effect on delayed solid gastric emptying: significantly restored
nNOSalpha protein; diabetic female rat gastric tissues, E2 2 mg/kg 21 day pellet
  Effect on reduced nNOSalpha protein expression: significantly restored

## COC(=O)[C@@H](N)CCCNC(=N)N[N+](=O)[O-] [L-NAME, N^G-nitro-L-arginine methyl ester]
Gastric tissues; preincubation L-NAME 10^−4M, FC and FD groups, 2 Hz
  Effect on nitrergic relaxation: significant inhibition
rats; female rats
  Effect on IGAP: significantly elevated
rats; male rats
  Effect on IGAP: decreased

## CN(Cc1cnc2nc(N)nc(N)c2n1)c1ccc(C(=O)N[C@@H](CCC(=O)O)C(=O)O)cc1 [MTX, methotrexate]
[1]; MTX 100 μM
  NO release: 0.73±0.15
Gastric muscle strips; [4]
  nitrergic relaxation, antrum, EFS 2 Hz: −0.08±0.04 AUC mg^−1 tissue
  nitrergic relaxation, fundus, EFS 2 Hz: −0.17±0.076 AUC mg^−1 tissue
  nitrergic relaxation, pylorus, EFS 2 Hz: −0.13±0.05 AUC mg^−1 tissue
nNOSalpha; female rat gastric antrum, MTX 3.75 mg kg^−1 twice a day, 4 days
  nNOSalpha dimer/monomer ratio: 0.2±0.04

## CC(=O)[C@H]1CC[C@H]2[C@@H]3CCC4=CC(=O)CC[C@]4(C)[C@H]3CC[C@]12C [P4, progesterone]
Female rats
  Effect on gastric emptying for solids: not

## NC1=N[C@H](O)[C@H]2[C@H]3O[C@]4(O)O[C@@H]([C@@H](O)[C@@]2(N1)[C@@H]4O)[C@]3(O)CO [TTX, tetrodotoxin]
Gastric tissues
  Effect on nitrergic relaxation: abolished

## C[C@H](O)C(=O)C1=Nc2c(nc(N)[nH]c2=O)NC1 [sepiapterin]
Female rats; control female rats + dietary sepiapterin 20 mg kg^−1, 10 days
  solid gastric emptying (% in 4 h): 74±4 % in 4 h
Female rats; [5]
  solid gastric emptying (% in 4 h): 67.0±8.2 % in 4 h
[1]; MTX 100 μM + SEP 100 μM
  NO release: 1.02±0.19
Gastric muscle strips; control female rats + sepiapterin
  nitrergic relaxation, gastric antrum, EFS 2 Hz: −0.51±0.06 AUC mg^−1 tissue
Gastric muscle strips; [5]
  nitrergic relaxation, gastric antrum, EFS 2 Hz: −0.35±0.03 AUC mg^−1 tissue
nNOSalpha protein; control female rat gastric antrum, BH4 or sepiapterin
  Change in nNOSalpha protein expression: no change
nNOSalpha protein
  nNOSalpha protein level: 0.88±0.15
nNOSalpha
  nNOSalpha dimmer/monomer level: 0.64±0.07
[2]; STZ-diabetic female rats + SEP, fasting
  Blood Glucose: 494.5 ± 13.96 mg/dL
[2]; both control and diabetic female rats
  Effect on blood glucose levels: unchanged
[3]
  Body Weight: 188 ± 4.3 g
[3]; listed as SEP
  Body Weight: 188 ± 4.3 g

## C[C@H](O)[C@H](O)[C@H]1CNc2nc(N)[nH]c(=O)c2N1 [tetrahydrobiopterin]
nNOSalpha protein
  nNOSalpha protein level: 0.42±0.05
nNOSalpha
  nNOSalpha dimmer/monomer level: 0.36±0.11
